# According to PMC5458211, “Mitochondrial VDAC1-based peptides: Attacking oncogenic properties in glioblastoma” (Oncotarget, 2017):
# Non-standard residues stand in square brackets, D forms with d. Residues, ends and D or L forms follow the SMILES beside them.
# What was measured:
# [1] = tested on: primary brain cells (PBCs); assay: Cell death by PI staining and flow cytometry, primary brain cells; type: cell-based; settings: mouse PBCs, 6 h at 37°C, serum-free medium, PI staining; Fig 1I-1K
# Excerpt: Figure 1 VDAC1-based peptides induce dramatic cell death of several brain tumor-derived cell lines but to lesser extent in primary brain cells A. IHC staining of VDAC1 of human normal brain (n=13) or glioblastoma (n=41) in tissue array slides (Biomax), as described in Materials and methods available online in Supplemental information. Percentages of sections stained at the intensity indicated are shown. […] The VDAC1-derived sequences Δ(1-14)N-terminus and LP4 are in green and pink, respectively. The cell-penetrating peptides Antp and Tf are in orange and blue, respectively. The loop shape of LP4 stabilized by a tryptophan zipper is in purple. The amino acids of Δ(1-14)N-terminus, LP4 and Antp are in the D configuration. The sequences of D-LP4 and Retro-D-LP4 are presented below. C. Immunoblot analysis of VDAC1, HK-I, Bcl-2 and Transferrin receptor (TfR) expression in brain tumor-derived cell lines using specific antibodies, as described in Materials and methods available online in Supplemental information. […] Cells were harvested, washed twice with PBS and cell death was analyzed by propidium iodide (PI) staining and flow cytometry. H. IC50 values (μM) for pepdide inducing cell death as derived from D-G. The results shown correspond to means ± SD (n=3). […] Cells were harvested, washed twice with PBS and cell death was analyzed by PI staining and flow cytometry. […]
# Cells (6×10^5 /ml) were incubated in 500 μl serum-free medium with the peptide of interest for 6 h at 37°C in the presence of 5% CO2. The cells were then trypsinized, centrifuged (1500xg, 5 min), washed with PBS and analyzed for cell death using propidium iodide (PI) staining and flow cytometer (Beckton-Dickinson, San Jose, CA) and BD CellQuest Pro software. Apoptotic cell death was also analyzed by PI and annexin V-FITC staining, and by acridine orange and ethidium bromide staining and light microscopy (Olympus LX2-KSP).
# [2] = tested on: cellular ATP levels in U-87MG cells; assay: Cellular ATP levels (CellTiter-Glo); type: cell-based, human; settings: 3 h, % of control, n=2 or 3
# Procedure: Figure 2 Mode of action of VDAC1-based peptides – interacting with- and detaching HK, releasing Cyto c, decreasing ATP level and inducing apoptosis A. Purified HK-II was fluorescently labeled using the NanoTemper protein-labeling Kit BLUE. […] Then, 3-5 μl of the samples were loaded into MST-grade glass capillaries and thermophoresis was measured using a Monolith-NT115 apparatus, as described in Materials and methods available online in Supplemental information. […] The final DMSO concentration in control and peptide-treated cells was 0.07%. Fixed cells were visualized using confocal microscopy (Olympus 1×81), as described in Materials and Methods available online in Supplemental information. […] The levels of HK in the supernatants were quantified and are presented as relative units. D. D-ΔN-Ter-Antp induces mitochondrial inner membrane depolarization analyzed as described in Materials and Methods available online in Supplemental information. […] Cells then were analyzed for Δψ using TMRM. Δψ is presented as percentage of control. […] Release of Cyto c from the mitochondria was analyzed by immunostaining using anti-Cyto c antibodies and confocal microscopy (Olympus 1×81) as described in Materials and Methods available online in Supplemental information. […] Quantification of apoptosis in control and peptide's treated cells are presented bellow the images. […]
Compound,cell death in primary brain cells as compared to U-87MG cells [1],decrease in cellular ATP levels [2]
CC[C@H](C)[C@H](NC(=O)[C@H](Cc1ccc(O)cc1)NC(=O)[C@@H]1CCCN1C(=O)[C@H](CCCNC(=N)N)NC(=O)[C@H](Cc1c[nH]cn1)NC(=O)[C@H](CO)NC(=O)[C@H](Cc1c[nH]c2ccccc12)NC(=O)[C@@H](NC(=O)[C@H](Cc1c[nH]c2ccccc12)NC(=O)[C@H](CCC(=O)O)NC(=O)[C@@H](CCCCN)NC(=O)[C@@H](CCCCN)NC(=O)[C@@H](CC(C)C)NC(=O)[C@@H](CCC(=O)O)NC(=O)[C@H](NC(=O)[C@@H](C)NC(=O)[C@H](NC(=O)[C@@H](CC(N)=O)NC(=O)[C@@H](CC(C)C)NC(=O)[C@@H](C)NC(=O)[C@@H](Cc1c[nH]c2ccccc12)NC(=O)[C@H](NC(=O)[C@@H](C)NC(=O)CNC(=O)[C@@H](CC(N)=O)NC(=O)[C@@H](CO)NC(=O)[C@@H](CC(N)=O)NC(=O)[C@H](CCCCN)NC(=O)[C@H](Cc1c[nH]c2ccccc12)NC(=O)[C@@H](NC(=O)[C@H](Cc1c[nH]c2ccccc12)NC(=O)[C@@H](N)CCCCN)[C@@H](C)O)[C@H](C)O)C(C)C)[C@H](C)O)[C@@H](C)O)C(=O)N[C@@H](C)C(=O)N[C@@H](Cc1c[nH]cn1)C(=O)O [Retro-Tf-D-LP4],lesser extent,
CC[C@@H](C)[C@@H](NC(=O)[C@@H](CCCCN)NC(=O)[C@H](NC(=O)[C@@H](CCC(N)=O)NC(=O)[C@@H](CCCNC(=N)N)NC(=O)[C@@H](CC(C)C)NC(=O)CNC(=O)[C@@H](Cc1ccccc1)NC(=O)CNC(=O)[C@@H](Cc1ccc(O)cc1)NC(=O)CNC(=O)[C@@H](CCCCN)NC(=O)[C@H](NC(=O)[C@@H](Cc1ccccc1)NC(=O)[C@H](NC(=O)[C@@H](CC(=O)O)NC(=O)[C@H](N)CCCNC(=N)N)C(C)C)[C@H](C)O)[C@H](C)CC)C(=O)N[C@H](Cc1c[nH]c2ccccc12)C(=O)N[C@H](Cc1ccccc1)C(=O)N[C@H](CCC(N)=O)C(=O)N[C@H](CC(N)=O)C(=O)N[C@H](CCCNC(=N)N)C(=O)N[C@H](CCCNC(=N)N)C(=O)N[C@H](CCSC)C(=O)N[C@H](CCCCN)C(=O)N[C@H](Cc1c[nH]c2ccccc12)C(=O)N[C@H](CCCCN)C(=O)N[C@H](CCCCN)C(=O)O [D-ΔN-Ter-Antp] (H-[dR][dD][dV][dF][dT][dK]G[dY]G[dF]G[dL][dR][dQ][dI][dK][dI][dW][dF][dQ][dN][dR][dR][dM][dK][dW][dK][dK]-OH; N-terminus and C-terminus assumed),lesser extent,about 80%
CC[C@H](C)[C@H](NC(=O)[C@H](C)NC(=O)[C@@H](N)Cc1c[nH]cn1)C(=O)N[C@@H](Cc1ccc(O)cc1)C(=O)N1CCC[C@H]1C(=O)N[C@@H](CCCNC(=N)N)C(=O)N[C@@H](Cc1c[nH]cn1)C(=O)N[C@@H](CO)C(=O)N[C@@H](Cc1c[nH]c2ccccc12)C(=O)N[C@H](C(=O)N[C@@H](Cc1c[nH]c2ccccc12)C(=O)N[C@@H](CCC(=O)O)C(=O)N[C@H](CCCCN)C(=O)N[C@H](CCCCN)C(=O)N[C@H](CC(C)C)C(=O)N[C@H](CCC(=O)O)C(=O)N[C@@H](C(=O)N[C@H](C)C(=O)N[C@@H](C(=O)N[C@H](CC(N)=O)C(=O)N[C@H](CC(C)C)C(=O)N[C@H](C)C(=O)N[C@H](Cc1c[nH]c2ccccc12)C(=O)N[C@@H](C(=O)N[C@H](C)C(=O)NCC(=O)N[C@H](CC(N)=O)C(=O)N[C@H](CO)C(=O)N[C@H](CC(N)=O)C(=O)N[C@@H](CCCCN)C(=O)N[C@@H](Cc1c[nH]c2ccccc12)C(=O)N[C@H](C(=O)N[C@@H](Cc1c[nH]c2ccccc12)C(=O)N[C@@H](CCCCN)C(=O)O)[C@@H](C)O)[C@H](C)O)C(C)C)[C@H](C)O)[C@@H](C)O [Tf-D-LP4],lesser extent,about 50%
